According to patent US9254248B2, “Inhibitor of odor caused by sotolone” (Kao Corporaton, priority 2013, dated 2016):

Tests used:
[1] = molecular target: T1, olfactory receptor OR8D1 (Homo sapiens, UniProt Q8WZ84); assay: Antagonistic activity against the response of OR8D1 to sotolone (luciferase assay, rate of inhibition); type: cell-based; settings: sotolone 100 μM and test substance 100 μM, OR8D1-expressing HEK293 cells
T1 construct: expressed in transfected cells; host or cells: HEK293
T1 sequence (Q8WZ84 1-308): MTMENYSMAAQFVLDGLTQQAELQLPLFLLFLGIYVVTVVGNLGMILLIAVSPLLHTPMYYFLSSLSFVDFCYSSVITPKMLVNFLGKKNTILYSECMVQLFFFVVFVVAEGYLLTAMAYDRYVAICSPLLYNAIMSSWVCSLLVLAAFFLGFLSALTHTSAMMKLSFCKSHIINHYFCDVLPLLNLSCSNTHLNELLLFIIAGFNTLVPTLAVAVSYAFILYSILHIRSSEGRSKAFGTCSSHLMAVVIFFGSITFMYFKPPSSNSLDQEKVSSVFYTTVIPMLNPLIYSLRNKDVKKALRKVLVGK
Experimental: 228 types of test substances were examined for their antagonistic activity against the response of the olfactory receptor OR8D1 to sotolone.
Sotolone (100 μM) and each test substance (100 μM) were added to HEK293 cells allowed to express the olfactory receptor OR8D1 by the same procedures as in Example 2. The response of the olfactory receptor was measured to evaluate change in receptor response caused by the addition of the test substance.
The rate of inhibition of the receptor response by the test substance was calculated as follows: firefly luciferase-derived luminescence intensity (Y) in the olfactory receptor OR8D1-expressing cells without sotolone stimulation was subtracted from firefly luciferase-derived luminescence intensity (X) induced by stimulation with sotolone alone to determine receptor activity (X−Y) based on the stimulation with sotolone alone. Likewise, the luminescence intensity (Y) in the cells without sotolone stimulation was subtracted from luminescence intensity (Z) induced by stimulation with the mixture of sotolone and the test substance to determine receptor activity (Z−Y) in the presence of the test substance. The rate of reduction in the receptor activity (Z−Y) in the presence of the test substance with respect to the receptor activity (X−Y) based on the stimulation with sotolone alone was calculated according to an expression shown below to determine the rate of inhibition of the receptor response by the test substance. In this assay, a plurality of independent duplicate experiments was performed. An average of the experiments in each run was obtained. Rate of inhibition (%)={1−(Z−Y)/(X−Y)}×100

[2] = molecular target: T1, olfactory receptor OR8D1; assay: Luciferase reporter gene assay (cAMP) of olfactory receptor response to sotolone in HEK293 cells; type: cell-based
Description: (§1) On the basis of sequence information registered in GenBank, each human olfactory receptor gene was cloned by PCR with Human Genomic DNA Female (G1521: Promega Corp.) as a template. Each gene thus amplified by PCR was inserted into a pENTR vector (Invitrogen Corp.) according to the manual. A NotI-AscI site present on the pENTR vector r was recombined into a NotI-AscI site prepared downstream of Flag-Rho tag sequence on a pME18S vector.
(§2) A gene (GenBank GI: 50234917) encoding a human receptor transport protein, RTP1S was inserted into the EcoRI-XhoI site of the pME18S vector.
(§3) HEK293 cells expressing each of 400 types of human olfactory receptors were prepared. […]
(§4) The olfactory receptors expressed on the HEK293 cells are conjugated with intracellular Gas to activate adenylate cyclase, thereby increasing intracellular cAMP levels. In this study, their responses to sotolone were measured using luciferase reporter gene assay which involved monitoring increase in intracellular cAMP level as luminescence intensity derived from a firefly luciferase gene (fluc2P-CRE-hygro). […]
(§5) A medium was removed from the cultures prepared in the preceding paragraph 3). […] The luciferase activity was measured using Dual-Glo™ luciferase assay system (Promega Corp.) according to the instruction manual of the product. […]

[3] = tested on: the other olfactory receptors (400 types of human olfactory receptors except OR8D1); assay: Luciferase reporter gene assay of 400 types of human olfactory receptors, response to sotolone; type: cell-based; settings: sotolone 1 mM, HEK293 cells expressing each receptor
Description: as §1, §2, §3, §4, §5

[4] = molecular target: T1, olfactory receptor OR8D1; settings: Non-Patent Document 5; cited from earlier work

Row | inhibition at 100 µM [1] | Structure (SMILES) | also measured
1 | ≥ 50% | CC1C/C=C/CCCCCCCCCC(=O)C1 [Muscenone(R) Delta, (5E)-3-methylcyclopentadec-5-en-1-one] | 
2 | ≥ 75% | CC(=O)C1=C(C)C2CC3(C1)C(C)CCC3C2(C)C (stereo not drawn) [acetylcedrene, 1-(2,3,4,7,8,8a-hexahydro-3,6,8,8-tetramethyl-1H-3a,7-methanoazulen-5-yl)-ethanone] | 
3 | ≥ 50% | CC(=O)C1(C)CC2=C(CCCC2(C)C)CC1C (stereo not drawn) [Iso E Super, 7-acetyl-1,2,3,4,5,6,7,8-octahydro-1,1,6,7-tetramethyl-naphthalene] | 

Continued, molecule first:

Row | Structure (SMILES) | inhibition at 100 µM [1] | also measured
4 | C[C@@H]1CCCCCCCCCCCCC(=O)C1 [Muscone, muscone] |  | rate of inhibition of the response of OR8D1 to sotolone [1]: 40% or more rate of
5 | CC(C)=CCCC(C)=CC=O [Citral, citral] | ≥ 50% | 
6 | CCCCCC(C=O)=Cc1ccccc1 [amylcinnamic aldehyde, 2-benzylideneheptanal] | ≥ 50% | 
7 | CC(=O)c1cc2c(cc1C)C(C)(C)C(C)CC2(C)C [Tonalid(R), 1-(5,6,7,8-tetrahydro-3,5,5,6,8,8-hexamethyl-2-naphthalenyl)-ethanone] | ≥ 50% | 
8 | CC1=C(O)C(=O)OC1C (stereo not drawn) [sotolone, 3-Hydroxy-4,5-dimethyl-2(5H)-furanone] |  | concentration dependence of the response of OR8D1 to sotolone ([2]; sotolone 0, 3, 10, 30, 100, 300, 1000 and 3000 μM, HEK293 cells with human RTP1S): concentration-dependent response; response of olfactory receptor OR8D1 to sotolone ([2]; sotolone 1 mM, HEK293 cells expressing the receptor, 2.5 hours, fold increase of luminescence): exhibited a response; response of the other olfactory receptors to sotolone [3]: did not respond; response of olfactory receptor OR8D1 induced by sotolone (reported) [4]: induces the response
9 | CC(C)(C)c1ccc(CCC=O)cc1 [bourgeonal, 3-(4-tert-butylphenyl)propanal] | ≥ 50% | 
